PubChem BioAssay (NCI)
“And” between values parts separate entries of the source, which are not always exact repeats. Equal values may be shown once.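 1) Cells in 96-well plates. 2) Compound, 48 h, 5 concentrations. 3) Linear interpolation between surrounding doses. 4) Unreached endpoint = highest concentration. GI50 = concentration required for 50% inhibition of growth. The concentration for full growth arrest is given as TGI.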

Key:
Assay in all cases: DTP human tumour cell line panel, 48 h
[1] = tested on: NCI-H460 lung
[2] = tested on: SNB-19 CNS
[3] = tested on: CCRF-CEM leukemia
[4] = tested on: SK-MEL-28 melanoma
[5] = tested on: HS 578T breast
[6] = tested on: SF-295 CNS
[7] = tested on: ACHN renal
[8] = tested on: HOP-92 NSCLC
[9] = tested on: HOP-62 NSCLC
[10] = tested on: RXF 393 renal

CC(C)(C)c1ccc(O)c(CN(Cc2cc(C(C)(C)C)ccc2O)c2ccccc2)c1
TGI [1]: 30.9 µM | TGI [2]: 31.5 µM | TGI [3]: > 100 µM | TGI [4]: 32.4 µM | TGI [5]: 42 µM | TGI [6]: 37.4 µM | TGI [7]: 35.5 µM | TGI [8]: 30.7 µM | TGI [9]: 47.6 µM | TGI [10]: 27.5 µM

Clc1ccc(-c2c(C3=NCCCN3)nnn2-c2ccc(Cl)cc2)cc1
TGI [1]: > 75.4 µM | TGI [2]: > 85.3 µM | TGI [3]: > 83.3 µM | TGI [4]: 31.6 µM | TGI [5]: > 59.5 µM | TGI [6]: > 77.2 µM | TGI [7]: > 100 µM | TGI [8]: 64.5 µM | TGI [9]: > 82.6 µM | TGI [10]: 68.8 µM

COC(=O)C12C3C4C1C1C2C3C41NC(=O)c1csc([C@@H](C[C@H](C(C)C)N(C)C(=O)[C@@H](NC(=O)[C@H]2CCCCN2C)C2CC2)OC(C)=O)n1 (some centres undefined)
GI50 [1]: 0.0489 µM | TGI [1]: > 33.3 µM | GI50 [2]: 0.077 µM | TGI [2]: > 33.3 µM | GI50 [3]: 0.00732 µM | TGI [3]: > 33.3 µM | TGI [4]: > 33.3 µM | GI50 [5]: 0.00773 µM | TGI [5]: > 33.3 µM | GI50 [6]: 0.0476 µM | TGI [6]: > 33.3 µM | GI50 [7]: 0.0903 µM | TGI [7]: > 33.3 µM | GI50 [9]: 0.048 µM | TGI [9]: > 33.3 µM

Cc1ccc(NC(=O)c2sc3nc(C)c(C(O)c4ccccc4)cc3c2N)cc1 (centres undefined)
GI50 [1]: 0.359 µM | TGI [1]: 5.32 µM | GI50 [2]: 0.542 µM | TGI [2]: > 100 µM | GI50 [3]: 0.375 µM | TGI [3]: > 49.7 µM | GI50 [4]: 0.772 µM | TGI [4]: > 100 µM | GI50 [5]: 0.327 µM | TGI [5]: 10.3 µM | GI50 [6]: 0.339 µM | TGI [6]: 4.03 µM | GI50 [7]: 0.658 µM | TGI [7]: 20.2 µM | GI50 [8]: 0.857 µM | TGI [8]: 20.4 µM | GI50 [9]: 0.716 µM | TGI [9]: 23.6 µM | GI50 [10]: 0.333 µM | TGI [10]: 3.29 µM

Cc1ccc2c(c1)CN(C(=O)CCC(=O)OCc1ccccc1)c1ccc(C)cc1CN2C(=O)CCC(=O)OCc1ccccc1
TGI [1]: > 100 µM | TGI [2]: > 100 µM | TGI [3]: > 100 µM | TGI [4]: > 100 µM | TGI [5]: > 100 µM | TGI [6]: > 100 µM | TGI [7]: > 100 µM | TGI [8]: > 100 µM | TGI [9]: > 100 µM | TGI [10]: > 100 µM

CC(C)(C)c1cc(NC(=O)Cc2ccc(-c3cnc4cc(-c5cnn(CCN6CCOCC6)c5)ccc4n3)cc2)no1
GI50 [1]: 0.181 µM and 0.32 µM and 0.0456 µM | TGI [1]: 50 µM and > 100 µM and > 3 µM | GI50 [2]: 2.47 µM and 2.26 µM and 0.279 µM | TGI [2]: 50 µM and > 100 µM and > 3 µM | GI50 [3]: 0.163 µM and 0.388 µM and 0.107 µM | TGI [3]: 22.8 µM and > 100 µM and > 3 µM | GI50 [4]: 0.885 µM and 0.826 µM and 0.139 µM | TGI [4]: 50 µM and > 100 µM and > 3 µM | GI50 [5]: 0.132 µM and 0.235 µM and 0.0377 µM | TGI [5]: 1.56 µM and 2.88 µM and > 2.8 µM | GI50 [6]: 0.436 µM and 0.461 µM and 0.0839 µM | TGI [6]: 50 µM and > 100 µM and > 3 µM | GI50 [7]: 0.151 µM and 0.302 µM and 0.0394 µM | TGI [7]: 50 µM and > 100 µM and > 3 µM | GI50 [8]: 0.194 µM and 0.0913 µM | TGI [8]: 2.92 µM and > 3 µM | TGI [9]: 50 µM and > 100 µM and > 3 µM | GI50 [10]: 0.179 µM and 0.274 µM and 0.0395 µM | TGI [10]: 1.93 µM and 1.45 µM

c1cc2c(ncc3cscc32)s1
TGI [1]: > 100 µM | TGI [2]: > 100 µM | TGI [3]: > 100 µM | TGI [4]: > 100 µM | TGI [5]: > 100 µM | TGI [6]: > 100 µM | TGI [7]: > 100 µM | TGI [8]: > 100 µM | TGI [9]: > 100 µM | TGI [10]: > 100 µM

CC[CH2][Sn]([Cl])([Cl])[CH2]CC.Oc1ccccc1C=NCCN=Cc1ccccc1O
GI50 [1]: 15.6 µM | TGI [1]: 33 µM | GI50 [2]: 12.1 µM | TGI [2]: 25 µM | GI50 [3]: 2.16 µM | TGI [3]: 41.8 µM | GI50 [4]: 8.7 µM | TGI [4]: 21.6 µM | GI50 [5]: 2.33 µM | TGI [5]: 9.09 µM | GI50 [6]: 14.7 µM | TGI [6]: 32.7 µM | GI50 [7]: 10.1 µM | TGI [7]: 21.8 µM | GI50 [8]: 2.09 µM | TGI [8]: 8.8 µM | GI50 [9]: 12.3 µM | TGI [9]: 25.4 µM | GI50 [10]: 2.41 µM | TGI [10]: 8.11 µM

Cc1ccc2c3c(c(=O)[nH]c2c1)C1(C(C#N)=C(N)O3)c2cc(Br)ccc2-c2ccc(Br)cc21
GI50 [1]: 2.09 µM | TGI [1]: 4.67 µM | GI50 [2]: 2.12 µM | TGI [2]: 6.01 µM | GI50 [3]: 3.12 µM | TGI [3]: 15 µM | GI50 [4]: 3.48 µM | TGI [4]: 13.4 µM | GI50 [5]: 2.22 µM | TGI [5]: 5.95 µM | GI50 [6]: 1.82 µM | TGI [6]: 3.71 µM | GI50 [7]: 1.87 µM | TGI [7]: 4.15 µM | GI50 [8]: 1.38 µM | TGI [8]: 3.15 µM | GI50 [9]: 1.85 µM | TGI [9]: 4.19 µM | GI50 [10]: 1.53 µM | TGI [10]: 3.13 µM

Fc1ccc(-c2nn3ncccc3c2-c2ccnc(Nc3ccc4c(c3)OCCO4)n2)cc1
GI50 [1]: 5.64 µM | TGI [1]: > 23.3 µM | GI50 [2]: 19.4 µM | TGI [2]: > 25 µM | GI50 [3]: 6.22 µM | TGI [3]: > 25 µM | GI50 [4]: 8.64 µM | TGI [4]: > 25 µM | GI50 [5]: 2.15 µM | TGI [5]: > 23.2 µM | GI50 [6]: 6.35 µM | TGI [6]: 18.6 µM | GI50 [7]: 1.16 µM | TGI [7]: > 25 µM | GI50 [8]: 2.61 µM | TGI [8]: 18.8 µM | GI50 [9]: 15.2 µM | TGI [9]: > 25 µM | GI50 [10]: 1.07 µM | TGI [10]: 7.22 µM

CON(C)C(=O)N1N=C(c2cc(F)ccc2F)SC1(CCCN)c1ccccc1 (centres undefined)
GI50 [1]: < 0.01 µM | TGI [1]: 12 µM and 11.8 µM | GI50 [2]: 0.109 µM and < 0.0132 µM | TGI [2]: 23.2 µM and 23.7 µM | GI50 [3]: 0.0115 µM and < 0.01 µM | TGI [3]: 22.4 µM and 21.6 µM | GI50 [4]: 10.6 µM and 2.97 µM | TGI [4]: 23.8 µM and 23.1 µM | GI50 [5]: 0.0555 µM and < 0.01 µM | TGI [5]: 17.4 µM and 21.8 µM | GI50 [6]: 0.0191 µM and < 0.01 µM | TGI [6]: 1.1 µM | GI50 [7]: 7.79 µM and 4.91 µM | TGI [7]: 22.5 µM and 21.8 µM | TGI [8]: 10.2 µM and 15 µM | GI50 [9]: 0.0545 µM and < 0.01 µM | TGI [9]: 18.4 µM and 15.7 µM | GI50 [10]: < 0.01 µM | TGI [10]: 0.756 µM

CN1C(=O)c2ccccc2NC(=O)C12O[C@@H]2c1cccc(O)c1 (some centres undefined)
TGI [1]: > 100 µM | TGI [2]: > 100 µM | TGI [3]: > 100 µM | TGI [4]: > 100 µM | TGI [5]: > 100 µM | TGI [6]: > 100 µM | TGI [7]: > 100 µM | TGI [8]: > 100 µM | TGI [9]: > 100 µM

N#C/C(=C\c1cc2ccccc2c2ccccc12)c1ccccc1
TGI [1]: > 36.1 µM | TGI [2]: 45.4 µM | TGI [3]: 36.2 µM | TGI [4]: > 100 µM | TGI [6]: 19.9 µM | TGI [7]: > 83.5 µM | TGI [8]: > 71.7 µM | TGI [9]: 17.6 µM | TGI [10]: 18.6 µM

OC/C=C(\I)CCCOCOCc1ccccc1
TGI [1]: > 100 µM | TGI [2]: > 100 µM | TGI [3]: 46.1 µM | TGI [4]: > 100 µM | TGI [6]: > 100 µM | TGI [7]: > 100 µM | TGI [8]: 53.4 µM | TGI [9]: > 100 µM | TGI [10]: 72.3 µM

COc1ccc(/C(Cl)=C(\C=O)c2ccc([N+](=O)[O-])cc2)cc1
TGI [1]: > 100 µM | TGI [2]: > 31.6 µM | TGI [3]: 23.2 µM | TGI [4]: > 93.8 µM | TGI [6]: 34.6 µM | TGI [7]: 70.5 µM | TGI [8]: 31.2 µM | TGI [9]: 52.8 µM | TGI [10]: 38.6 µM
